Results: patent US12077503B2, “Substituted cyclic amides and their use as herbicides” (FMC CORPORATION, priority 2015, dated 2024)

What was measured:
Type in all cases: in vivo
[1] = test system: wheat (Triticum aestivum); assay: Test A postemergence; conditions: Triticum aestivum, post-emergence, 240 h; for plant injury at 125 g/ha: 125 g ai/ha, postemergence, visual injury rating after approximately 10 d, read-out: Wheat plant response rating (0 to 100 scale, 0 no effect, 100 complete control); for plant injury at 31 g/ha: Postemergence, 31 g ai/ha, visual injury after approx. 10 d, 0 to 100 scale, 0 no effect, 100 complete control, read-out: Plant response rating, Wheat
Procedure, shortened: (§1)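 Preemergence directed soil spray on seeded pots, or postemergence application to plants 2–10 cm, one- to two-leaf. Solvent mixture non-phytotoxic, with surfactant. Scored ~10 d later, visually, 0–100 vs untreated.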

[2] = test system: corn (Zea mays); assay: Test A postemergence; conditions: Zea mays, post-emergence, 240 h; for plant injury at 125 g/ha: 125 g ai/ha, postemergence, visual injury rating after approximately 10 d, read-out: Corn plant response rating (0 to 100 scale, 0 no effect, 100 complete control); for Corn plant response rating (crop injury, 0 = no effect, 100 = complete kill) at 31 g/ha: Postemergence, 31 g ai/ha, visual injury after approx. 10 d, 0 to 100 scale, 100 complete control
Procedure, shortened: as §1

[3] = test system: ryegrass, Italian (Italian ryegrass, Lolium multiflorum); assay: Test A postemergence; conditions: Lolium multiflorum, post-emergence, 240 h; for pest or weed control at 125 g/ha: 125 g ai/ha, postemergence, visual injury rating after approximately 10 d, read-out: Ryegrass, Italian plant response rating (0 to 100 scale, 0 no effect, 100 complete control); for pest or weed control at 31 g/ha: Postemergence, 31 g ai/ha, visual injury after approx. 10 d, 0 to 100 scale, 0 no effect, 100 complete control, read-out: Plant response rating, Ryegrass, Italian
Procedure, shortened: as §1

[4] = test system: pigweed (Amaranthus retroflexus); assay: Test A postemergence; conditions: Amaranthus retroflexus, post-emergence, 240 h; for pest or weed control at 125 g/ha: 125 g ai/ha, postemergence, visual injury rating after approximately 10 d, read-out: Pigweed plant response rating (0 to 100 scale, 0 no effect, 100 complete control); for pest or weed control at 31 g/ha: Postemergence, 31 g ai/ha, visual injury after approx. 10 d, 0 to 100 scale, 0 no effect, 100 complete control, read-out: Plant response rating, Pigweed
Procedure, shortened: as §1

[5] = test system: Kochia (Kochia scoparia); assay: Test A preemergence; conditions: Bassia scoparia, pre-emergence, 240 h, read-out: Plant response rating, Kochia; for pest or weed control at 125 g/ha: 125 g ai/ha, preemergence, visual rating after approx. 10 d, 0 to 100 scale where 0 is no effect and 100 is complete control; for pest or weed control at 31 g/ha: Preemergence, 31 g ai/ha, 0 to 100 scale (0 no effect, 100 complete control)
Procedure, shortened: as §1

[6] = test system: ragweed (common ragweed, Ambrosia elatior); assay: Test A preemergence; conditions: Ambrosia artemisiifolia, pre-emergence, 240 h, read-out: Plant response rating, Ragweed; for pest or weed control at 125 g/ha: 125 g ai/ha, preemergence, visual rating after approx. 10 d, 0 to 100 scale where 0 is no effect and 100 is complete control; for pest or weed control at 31 g/ha: Preemergence, 31 g ai/ha, 0 to 100 scale (0 no effect, 100 complete control)
Procedure, shortened: as §1

[7] = test system: barnyardgrass (Echinochloa crus-galli); assay: Test A preemergence; conditions: Echinochloa crus-galli, pre-emergence, 240 h, read-out: Plant response rating, Barnyardgrass; for pest or weed control at 125 g/ha: 125 g ai/ha, preemergence, visual rating after approx. 10 d, 0 to 100 scale where 0 is no effect and 100 is complete control; for pest or weed control at 31 g/ha: Preemergence, 31 g ai/ha, 0 to 100 scale (0 no effect, 100 complete control)
Procedure, shortened: as §1

[8] = test system: giant foxtail (Setaria faberii); assay: Test A preemergence; conditions: Setaria faberi, pre-emergence, 240 h, read-out: Plant response rating, Foxtail, Giant; for pest or weed control at 125 g/ha: 125 g ai/ha, preemergence, visual rating after approx. 10 d, 0 to 100 scale where 0 is no effect and 100 is complete control; for pest or weed control at 31 g/ha: Preemergence, 31 g ai/ha, 0 to 100 scale (0 no effect, 100 complete control)
Procedure, shortened: as §1

[9] = test system: ryegrass, Italian (Italian ryegrass, Lolium multiflorum); assay: Test A preemergence; conditions: Lolium multiflorum, pre-emergence, 240 h, read-out: Plant response rating, Ryegrass, Italian; for pest or weed control at 125 g/ha: 125 g ai/ha, preemergence, visual rating after approx. 10 d, 0 to 100 scale where 0 is no effect and 100 is complete control; for pest or weed control at 31 g/ha: Preemergence, 31 g ai/ha, 0 to 100 scale (0 no effect, 100 complete control)
Procedure, shortened: as §1

[10] = test system: pigweed (Amaranthus retroflexus); assay: Test A preemergence; conditions: Amaranthus retroflexus, pre-emergence, 240 h, read-out: Plant response rating, Pigweed; for pest or weed control at 125 g/ha: 125 g ai/ha, preemergence, visual rating after approx. 10 d, 0 to 100 scale where 0 is no effect and 100 is complete control; for pest or weed control at 31 g/ha: Preemergence, 31 g ai/ha, 0 to 100 scale (0 no effect, 100 complete control)
[11] = test system: ducksalad (Heteranthera limosa); assay: Test B flooded paddy test; conditions: Heteranthera limosa, Flood, 250 g ai/ha; scale of 0 to 100 where 0 is no effect and 100 is complete control; read-out: Ducksalad plant response rating
Procedure, shortened: (§2)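 Flooding to 3 cm over soil accompanied treatment, which consisted of adding compound to the standing water around 2-leaf plants; depth was then maintained. Visual assessment versus controls followed at 13 to 15 d (scale 0–100, 0 meaning no effect).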

[12] = test system: barnyardgrass (Echinochloa crus-galli); assay: Test B flooded paddy test; conditions: Echinochloa crus-galli, Flood, 250 g ai/ha; scale of 0 to 100 where 0 is no effect and 100 is complete control; read-out: Barnyardgrass plant response rating
Procedure, shortened: as §2

[13] = test system: rice (Oryra sativa); assay: Test B flooded paddy test; conditions: Oryza sativa, Flood, 250 g ai/ha; scale of 0 to 100 where 0 is no effect and 100 is complete control; read-out: Rice plant response rating
Procedure, shortened: as §2

[14] = test system: sedge, umbrella (small-flower umbrella sedge, Cyperus difformis); assay: Test B flooded paddy test; conditions: Cyperus difformis, Flood, 250 g ai/ha; scale of 0 to 100 where 0 is no effect and 100 is complete control; read-out: Sedge, Umbrella plant response rating
Procedure, shortened: as §2

Row | SMILES | plant injury at 125 g/ha [1] | plant injury at 31 g/ha [1] | plant injury at 125 g/ha [2] | Corn plant response rating (crop injury, 0 = no effect, 100 = complete kill) at 31 g/ha [2] | pest or weed control at 125 g/ha [3] | pest or weed control at 31 g/ha [3] | pest or weed control at 125 g/ha [4] | pest or weed control at 31 g/ha [4] | pest or weed control at 125 g/ha [5] | pest or weed control at 31 g/ha [5] | pest or weed control at 125 g/ha [6] | pest or weed control at 31 g/ha [6] | pest or weed control at 125 g/ha [7] | pest or weed control at 31 g/ha [7] | pest or weed control at 125 g/ha [8] | pest or weed control at 31 g/ha [8] | pest or weed control at 125 g/ha [9] | pest or weed control at 31 g/ha [9] | pest or weed control at 125 g/ha [10] | pest or weed control at 31 g/ha [10] | other results
1 | CN1CC[C@H](c2cccc(OC(F)(F)F)c2)[C@@H](C(=O)Nc2ccccc2C(F)(F)F)C1=O [Compound 806] | 0% | 0% | 0% | 0% | 0% | 0% | 0% | 0% | 0% | 0% | 0% | 0% | 0% | 0% | 0% | 0% | 0% | 0% | 0% | 0% | pest or weed control at 250 g/ha [11]: 75%; pest or weed control at 250 g/ha [12]: 0%; pest or weed control at 250 g/ha [13]: 0%; pest or weed control at 250 g/ha [14]: 0%
2 | CN1CC[C@H](c2cccc(OC(F)(F)F)c2)[C@@H](C(=O)Nc2ccc(F)c(F)c2F)C1=O [Compound 808] | 0% | 0% | 0% | 0% | 0% | 0% | 0% | 0% | 0% | 0% | 0% | 0% | 100% | 100% | 90% | 70% | 30% | 0% | 0% | 0% | pest or weed control at 250 g/ha [11]: 100%; pest or weed control at 250 g/ha [12]: 70%; pest or weed control at 250 g/ha [13]: 15%; pest or weed control at 250 g/ha [14]: 0%
3 | CSc1ccccc1NC(=O)[C@H]1C(=O)N(C)CC[C@@H]1c1cccc(OC(F)(F)F)c1 [Compound 809] | 0% | 0% | 0% | 0% | 0% | 0% | 0% | 0% | 0% | 0% | 0% | 0% | 90% | 90% | 20% | 0% | 0% | 0% | 0% | 0% | pest or weed control at 250 g/ha [11]: 0%; pest or weed control at 250 g/ha [12]: 0%; pest or weed control at 250 g/ha [13]: 0%; pest or weed control at 250 g/ha [14]: 0%
4 | CN1CC[C@H](c2ccc3c(c2)OC(F)(F)O3)[C@@H](C(=O)Nc2ccccc2C(F)(F)F)C1=O [Compound 811] | 0% | 0% | 0% | 0% | 0% | 0% | 0% | 0% | 0% | 0% | 0% | 0% | 40% | 0% | 40% | 0% | 0% | 0% | 0% | 0% | pest or weed control at 250 g/ha [11]: 40%; pest or weed control at 250 g/ha [12]: 20%; pest or weed control at 250 g/ha [13]: 0%; pest or weed control at 250 g/ha [14]: 40%
5 | CN1CC[C@H](c2ccc3c(c2)OC(F)(F)O3)[C@@H](C(=O)Nc2cccc(F)c2F)C1=O [Compound 812] | 60% | 20% | 80% | 30% | 30% | 0% | 0% | 0% | 0% | 0% | 0% | 0% | 90% | 70% | 90% | 80% | 20% | 0% | 0% | 0% | pest or weed control at 250 g/ha [11]: 90%; pest or weed control at 250 g/ha [12]: 85%; pest or weed control at 250 g/ha [13]: 0%; pest or weed control at 250 g/ha [14]: 0%
